This is an account of results in paper PMC9694711, “Synthesis of Paclitaxel Derivatives for Remote Loading into Liposomes and Improved Therapeutic Effect” (Molecules, 2022).

For series [1], the system named is colon cancer cell line HCT-116. Description: MTT assay, cytotoxicity on HCT-116. Type of series: cell-based, human. The conditions noted are these: for GI50: Homo sapiens, HCT-116, MTT, 72 h, mean of two independent determinations; for TI (LO2/HCT-116): therapeutic index, GI50 LO2 / GI50 HCT-116. As to the method:
(§1) MTT assay was applied to verify the rationality of the molecular combination strategy. The cytotoxicity of the compounds was evaluated on lung cancer cell line A549, colon cancer cell line HCT-116, breast cancer cell line 4T1 and normal hepatocyte cell line LO2. Paclitaxel was used as a positive drug. […] The therapeutic index (TI) for LO2/HCT-116, LO2/A549 and LO2/4T1 of active compounds 4a, 4d, 13a, 17a, 17c and paclitaxel are shown in Table 2.
(§2) Cells were inoculated in 96-well plates (cell density 2 × 10^4 cells/well) followed by incubation for 24 h at 37 °C. Paclitaxel and target compounds were added to the corresponding well. Subsequently, the cultures were incubated for 72 h. After the MTT solution (50 µL, 2 mg/mL) was added to cultures, the plates were incubated for an additional 4 h. Purple colored formazan crystals were dissolved in 200 µL DMSO, and the absorbance was recorded at 570 nm using Synergy HT, Bio-Tek (Winooski, VT, USA).
In general terms: Tetrazolium dyes change colour on reduction, which living cells bring about.

Series [2] has as its system breast cancer cell line 4T1. Briefly: MTT assay, cytotoxicity on 4T1. Type of series: cell-based, mouse. The conditions noted are these: for GI50: Mus musculus, MTT, 72 h, mean of two independent determinations; for inhibition % at fixed concentration, 4T1 (printed in GI50 column): @100 nM. The method, then: as §1, §2
In series [3] the test system is normal hepatocyte cell line LO2. Briefly: MTT assay, cytotoxicity on normal cell LO2. To be noted: for GI50: Hepatocyte, MTT, 72 h, mean of two independent determinations; for inhibition % at fixed concentration, LO2 (printed in GI50 column): @2 μM. The format is cell-based. As to the method: as §1, §2
The subject of series [4] is lung cancer cell line A549. Description: MTT assay, cytotoxicity on A549. To be noted: for GI50: Homo sapiens, A549, MTT, 72 h, mean of two independent determinations; for TI (LO2/A549): therapeutic index, GI50 LO2 / GI50 A549. Type of series: cell-based, human. The method, then:
as §1, §2

A short description of series [5]: Liposome loading with calcium acetate gradients. Type of series: physicochemical. To be noted: sediment precipitated after loading. The source says: Since boronic acid RB(OH)2 is not only a weak acid, but also a structure that can complex with copper ions, ATP and saccharides, we investigated whether different inner phases could be employed to encapsulate compounds (4a, 4d, 13a, 17a, 17c) with good therapeutic index.

Series [6] in a line: Liposome loading with copper ion gradients (encapsulation efficiency by HPLC). The format is physicochemical. The conditions noted are these: copper ion gradient. An excerpt: Vyxeos® is a liposomal formulation of a fixed molar ratio (1:5) combination of the antineoplastic drugs daunorubicin (DN) and cytarabine (Cyt). Daunorubicin is subsequently actively encapsulated with high efficiency through complexation with intra-liposomal copper. The copper gluconate buffer forms a complex with daunorubicin at a ratio of 1:1 to 1:2 [25]. Referring to Vyxeos®, copper ion was selected as a complexed metal ion in the inner phase. […] Therefore, compound 4d was selected to investigate the effect of the anions on the loading efficiency. Among them, only the neutral gluconate copper was a suitable inner phase to facilitate the encapsulation of compound 4d (Table 3).
The reason for the stability of the neutral formulations was potentially due to the fact that PBA was effectively […] and interacted with copper more tightly in the neutral condition compared with the acidic condition. Thus, the neutral Cu-gluconate was selected as the inner phase. The concentration of copper ions was also investigated, showing that the higher the copper concentration, the higher the EE. Considering the safety of copper ions, 300 mM was chosen. […] The EE of compound 4d active loading liposome was more than 95% with copper ion gradient. Furthermore, we also evaluated the ATP and saccharides as remote gradients with the optimal formulation of copper ion gradients.
Blank liposomes were prepared for membrane hydration. HSPC, chol and DSPE-PEG2000 were dissolved using chloroform at a mass ratio of 3:1:0.02 and then spin-evaporated at 37 °C. The obtained film was then hydrated with 300 mM Cu-Glu (pH 7.4) at 65 °C for 30 min. The multi-layer vesicles were subsequently put into an extruder and passed through polycarbonate membranes with pore sizes of 400 nm, 200 nm and 100 nm 12 times at 65 °C containing 20 mM HEPES, 15 mM EDTA and 300 mM sucrose for removing the un-encapsulated Cu^2+, and then EDTA was removed with 20 mM HEPES and 300 mM sucrose buffer (pH 7.4, adjusted with triethylamine). Compound 4d was dissolved in DMSO and slowly added into the liposome at 65 °C for 30 min and then quenched in an ice bath for 5 min (the drug to lipid ratio was 1:10). The encapsulation efficiency and drug loading efficiency of compound 4d were determined using HPLC. The morphologies of liposomes were characterized using a transition electron microscope (TEM, Hitachi HT7700, Tokyo, Japan); then, their size, PDI and Zeta potential were measured using a Zetasizer Nano ZS90 (Malvern, UK).

A word on the GI50: it is the concentration at which growth is held to half of that of the control. Take `CC(=O)OC1C(=O)C2(C)C(O)CC3OCC3(OC(C)=O)C2C(OC(=O)c2ccccc2)C2(O)CC(OC(=O)C(OC(=O)OCCCCCCB(O)O)C(NC(=O)c3ccccc3)c3ccccc3)C(C)=C1C2(C)C` (centres unmarked) [Compound 10b, 2’-O-[6-boronohexyl carbonate]taxol]: the values for the GI50 in series [1], in series [2] and in series [3] were over 100 nM, over 100 nM and 745 nM, respectively.
Take `CC(=O)OC12COC1CC(O)C1(C)C(=O)C(O)C3=C(C)C(OC(=O)C(OC(=O)OCCCCCCB(O)O)C(NC(=O)OC(C)(C)C)c4ccccc4)CC(O)(C(OC(=O)c4ccccc4)C21)C3(C)C` (centres unmarked) [Compound 10c, 2’-O-[6-boronohexyl carbonate] docetaxel]: in series [1] (@100 nM), the “inhibition % at fixed concentration, HCT-116 (printed in GI50 column)” value is recorded as 55.66%@100 nM. For the same molecule, in series [2], the “inhibition % at fixed concentration, 4T1 (printed in GI50 column)” value (“inhibition % at fixed concentration, 4T1” for short) is listed as 35.97%@100 nM. For the same molecule, in series [3], the GI50 stood at 273 nM.
For `CC(=O)OC12COC1CC(O)C1(C)C(=O)C(O)C3=C(C)C(OC(=O)C(OC(=O)CCCCCB(O)O)C(NC(=O)OC(C)(C)C)c4ccccc4)CC(O)(C(OC(=O)c4ccccc4)C21)C3(C)C` (centres unmarked) [Compound 17g, 2’-O-[6-boronohexanoyl]docetaxel], in series [2], the “inhibition % at fixed concentration, 4T1” value is reported as 35.83%@100 nM.
Consider `CC(=O)OC1C(=O)C2(C)C(O)CC3OCC3(OC(C)=O)C2C(OC(=O)c2ccccc2)C2(O)CC(OC(=O)C(OC(=O)CCC(=O)OCc3ccc(B(O)O)cc3)C(NC(=O)c3ccccc3)c3ccccc3)C(C)=C1C2(C)C` (centres unmarked) [Compound 4a, 2’-O-[4-((4-boronobenzyl)oxy)-4-oxobutyryl]taxol], for which the GI50 was 68.5 nM in series [4], 73.7 nM in series [1] and 1880 nM in series [3]. For the same molecule, the “TI (LO2/A549)” value in series [4] is given as 27.4. In addition, the “TI (LO2/HCT-116)” value in series [1] turned out to be 25.4. Further, the “inhibition % at fixed concentration, 4T1” value in series [2] stood at 20.85%@100 nM. Also, in series [5], the “encapsulation into liposomes by calcium acetate gradients” value was “not feasible”. Also, the “loading into liposomes, copper ion as complexed metal ion in the inner phase” value in series [6] is reported as “failed in loading into the liposomes”.
As to `CC(=O)OC1C(=O)C2(C)C(O)CC3OCC3(OC(C)=O)C2C(OC(=O)c2ccccc2)C2(O)CC(OC(=O)C(OC(=O)CCCCCCB(O)O)C(NC(=O)c3ccccc3)c3ccccc3)C(C)=C1C2(C)C` (centres unmarked) [Compound 17e, 2’-O-[7-boronoheptanoyl]taxol], the GI50 in series [4], in series [1] and in series [2] was over 100 nM throughout.
`CC(=O)OC1C(=O)C2(C)C(O)CC3OCC3(OC(C)=O)C2C(OC(=O)c2ccccc2)C2(O)CC(OC(=O)C(OC(=O)OCCCCCB(O)O)C(NC(=O)c3ccccc3)c3ccccc3)C(C)=C1C2(C)C` (centres unmarked) [Compound 10a, 2’-O-[5-boronopentyl carbonate]taxol]: the GI50 in series [4], in series [1] and in series [2] was over 100 nM in each case. Also, in series [3], the “inhibition % at fixed concentration, LO2 (printed in GI50 column)” value came to 32.81%@2 μM.
With `CC(=O)OC1C(=O)C2(C)C(O)CC3OCC3(OC(C)=O)C2C(OC(=O)c2ccccc2)C2(O)CC(OC(=O)C(OC(=O)CCCC(=O)OCc3ccc(B(O)O)cc3)C(NC(=O)c3ccccc3)c3ccccc3)C(C)=C1C2(C)C` (centres unmarked) [Compound 4c, 2’-O-[5-((4-boronobenzyl)oxy)-5-oxopentanoyl]taxol], the GI50 in series [2] was over 100 nM.
On to `CC(=O)OC1C(=O)C2(C)C(O)CC3OCC3(OC(C)=O)C2C(OC(=O)c2ccccc2)C2(O)CC(OC(=O)C(OC(=O)c3ccc(B(O)O)cc3)C(NC(=O)c3ccccc3)c3ccccc3)C(C)=C1C2(C)C` (centres unmarked) [Compound 6a, 2’-O-[4-boronobenzoyl]taxol], for which the GI50 in series [4], in series [1] and in series [2] was over 100 nM in each case.
Take `CC(=O)OC12COC1CC(O)C1(C)C(=O)C(O)C3=C(C)C(OC(=O)C(OC(=O)c4ccc(B(O)O)cc4)C(NC(=O)OC(C)(C)C)c4ccccc4)CC(O)(C(OC(=O)c4ccccc4)C21)C3(C)C` (centres unmarked) [Compound 6b, 2’-O-[4-boronobenzoyl]docetaxel]: the GI50 in series [2] was over 100 nM.
As to `CC(=O)OC1C(=O)C2(C)C(O)CC3OCC3(OC(C)=O)C2C(OC(=O)c2ccccc2)C2(O)CC(OC(=O)C(OC(=O)CCCCCB(O)O)C(NC(=O)c3ccccc3)c3ccccc3)C(C)=C1C2(C)C` (centres unmarked) [Compound 17d, 2’-O-[6-boronohexanoyl]taxol], the GI50 in series [4], in series [1] and in series [2] was over 100 nM throughout.
`CC(=O)OC1C(=O)C2(C)C(O)CC3OCC3(OC(C)=O)C2C(OC(=O)c2ccccc2)C2(O)CC(OC(=O)C(OC(=O)CCCCB(O)O)C(NC(=O)c3ccccc3)c3ccccc3)C(C)=C1C2(C)C` (centres unmarked) [Compound 17c, 2’-O-[5-boronopentanoyl]taxol]: the GI50 in series [4] stood at 44.8 nM; in series [1], 6.38 nM; in series [2], 87.2 nM; in series [3] it was 1420 nM. Moreover, in series [4], the “TI (LO2/A549)” value worked out at 31.6. In series [1], the “TI (LO2/HCT-116)” value stood at 222.1. The “TI (LO2/4T1)” value in series [2] (therapeutic index, GI50 LO2 / GI50 4T1) was determined as 16.3. Also, the “encapsulation into liposomes by calcium acetate gradients” value in series [5] is “not feasible”. The “loading into liposomes, copper ion as complexed metal ion in the inner phase” value in series [6] was “failed in loading into the liposomes”.
For the molecule `CC(=O)OC1C(=O)C2(C)C(O)CC3OCC3(OC(C)=O)C2C(OC(=O)c2ccccc2)C2(O)CC(OC(=O)C(OC(=O)CCSSCCC(=O)OCc3ccc(B(O)O)cc3)C(NC(=O)c3ccccc3)c3ccccc3)C(C)=C1C2(C)C` (centres unmarked) [Compound 4e, 2’-O-[3-((3-((4-boronobenzyl)oxy)-3-oxopropyl)disulfaneyl)propionyl]taxol], the GI50 in series [2] was over 100 nM.
Regarding `CC(=O)OC12COC1CC(O)C1(C)C(=O)C(O)C3=C(C)C(OC(=O)C(OC(=O)CCCB(O)O)C(NC(=O)OC(C)(C)C)c4ccccc4)CC(O)(C(OC(=O)c4ccccc4)C21)C3(C)C` (centres unmarked) [Compound 17f, 2’-O-[4-boronobutanoyl]docetaxel], the GI50 in series [2] was 14.5 nM.
In the case of `CC(=O)OC12COC1CC(O)C1(C)C(=O)C(O)C3=C(C)C(OC(=O)C(OC(=O)CCC(=O)OCc4ccc(B(O)O)cc4)C(NC(=O)OC(C)(C)C)c4ccccc4)CC(O)(C(OC(=O)c4ccccc4)C21)C3(C)C` (centres unmarked) [Compound 4b, 2’-O-[4-((4-boronobenzyl)oxy)-4-oxobutyryl]docetaxel], the GI50 in series [2] worked out at 54.7 nM.
For the molecule `CC(=O)OC1C(=O)C2(C)C(O)CC3OCC3(OC(C)=O)C2C(OC(=O)c2ccccc2)C2(O)CC(OC(=O)C(OC(=O)CCCB(O)O)C(NC(=O)c3ccccc3)c3ccccc3)C(C)=C1C2(C)C` (centres unmarked) [Compound 17b, 2’-O-[4-boronobutanoyl]taxol], the 50% growth inhibitory concentration (GI50) in series [4] came out at 69.2 nM; in series [1], 38.3 nM. Also, the “inhibition % at fixed concentration, 4T1” value in series [2] was 17.89%@100 nM. Moreover, the “inhibition % at fixed concentration, LO2 (printed in GI50 column)” value in series [3] was found to be 38.06%@2 μM.
For the molecule `CC(=O)OC12COC1CC(O)C1(C)C(=O)C(O)C3=C(C)C(OC(=O)C(OC(=O)OCc4ccc(B(O)O)cc4)C(NC(=O)OC(C)(C)C)c4ccccc4)CC(O)(C(OC(=O)c4ccccc4)C21)C3(C)C` (centres unmarked) [Compound 13b, 2’-O-[4-boronobenzyl carbonate] docetaxel], the GI50 in series [2] came to 33.1 nM.
